Experimental data reported in US11530221B2, “Pyrimido[4,5-d]pyrimidin-2-one derivatives as protein kinase inhibitors” (KOREA INSTITUTE OF SCIENCE AND TECHNOLOGY, priority 2019, dated 2022).
Where two headings read alike, the source gives them in different places. Square brackets hold non-standard residues; d marks the D form. Peptide text beside a SMILES is read from it. * marks the point of attachment. X1 = Cc1ccc(Nc2ncc3c(n2)N(C)C(=O)N(c2cc(C(=O)*)ccc2C)C3)cn1; Aib = CC(C)(N)C(=O)O

What was measured:
Assay type in all cases: biochemical
DDR1 [1] = target: T1, DDR1 (Homo sapiens, UniProt Q08345); test: IC50 inhibitory activity against DDR1 kinase
T1 sequence (Q08345 19-913): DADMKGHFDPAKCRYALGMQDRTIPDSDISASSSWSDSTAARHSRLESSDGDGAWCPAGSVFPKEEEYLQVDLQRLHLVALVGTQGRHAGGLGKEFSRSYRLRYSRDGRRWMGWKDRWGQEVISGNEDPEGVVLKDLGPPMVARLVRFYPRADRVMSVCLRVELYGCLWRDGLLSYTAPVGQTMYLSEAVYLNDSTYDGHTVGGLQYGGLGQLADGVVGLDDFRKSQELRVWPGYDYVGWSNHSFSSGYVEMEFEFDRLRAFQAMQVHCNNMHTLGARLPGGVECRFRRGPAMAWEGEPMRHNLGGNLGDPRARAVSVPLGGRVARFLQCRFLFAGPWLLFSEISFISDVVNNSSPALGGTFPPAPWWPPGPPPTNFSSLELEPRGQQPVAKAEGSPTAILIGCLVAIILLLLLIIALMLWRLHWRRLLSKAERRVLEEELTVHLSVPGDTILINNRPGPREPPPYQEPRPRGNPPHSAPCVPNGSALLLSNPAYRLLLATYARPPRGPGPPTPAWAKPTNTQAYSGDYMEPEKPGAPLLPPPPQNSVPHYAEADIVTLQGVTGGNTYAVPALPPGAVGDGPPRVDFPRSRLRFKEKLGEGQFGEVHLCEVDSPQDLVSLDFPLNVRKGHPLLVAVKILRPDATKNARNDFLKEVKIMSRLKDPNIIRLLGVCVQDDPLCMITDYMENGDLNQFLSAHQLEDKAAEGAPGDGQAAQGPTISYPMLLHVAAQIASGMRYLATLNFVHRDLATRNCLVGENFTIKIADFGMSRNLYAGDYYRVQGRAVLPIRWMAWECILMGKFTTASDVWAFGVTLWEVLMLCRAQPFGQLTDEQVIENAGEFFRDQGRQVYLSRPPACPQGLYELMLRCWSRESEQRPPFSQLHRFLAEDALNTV
Procedure: (§1) IC50 values were calculated by measuring the inhibitory activity against LCK, c-Src, p38a/MAPK14, ABL1, DDR1 and FGR kinases of the compounds of the present invention.

ABL1 = ABL1 (Homo sapiens, UniProt P00519); test: IC50 inhibitory activity against ABL1 kinase
Procedure: as §1

BLK = BLK (Homo sapiens, UniProt P51451); test: Full kinase panel, single concentration: BLK; conditions: read-out: residual enzyme activity (%) BLK
Chain of BLK (P51451 whole entry): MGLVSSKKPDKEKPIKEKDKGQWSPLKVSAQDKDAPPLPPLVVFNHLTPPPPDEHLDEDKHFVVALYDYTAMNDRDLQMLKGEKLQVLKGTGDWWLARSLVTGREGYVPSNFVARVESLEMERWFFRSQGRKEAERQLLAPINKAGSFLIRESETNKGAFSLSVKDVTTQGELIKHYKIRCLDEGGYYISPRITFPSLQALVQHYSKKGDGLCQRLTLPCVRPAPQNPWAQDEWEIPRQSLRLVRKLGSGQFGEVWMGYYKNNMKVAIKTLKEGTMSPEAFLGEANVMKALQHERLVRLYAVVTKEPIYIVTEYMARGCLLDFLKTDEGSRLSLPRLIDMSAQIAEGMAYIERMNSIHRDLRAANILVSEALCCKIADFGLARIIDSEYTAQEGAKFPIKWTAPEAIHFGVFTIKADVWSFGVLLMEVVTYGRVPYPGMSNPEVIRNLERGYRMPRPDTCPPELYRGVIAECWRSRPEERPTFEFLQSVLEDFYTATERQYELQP
Procedure: (§2) In order to measure the inhibitory activity (% inhibitory capacity) against protein kinases of the compounds of the present invention, biochemical assays were performed using a full kinase panel.
(§3) The experimental compounds used herein were the compounds of Compound Nos. 1 and 33. The residual enzyme activity (%) was calculated by measuring the inhibitory activity against kinases upon treatment with the experimental compound at a single concentration of 1 μM. Kinases having calculated residual enzyme activity (%) of 30% or less (that is, inhibition of 70% or more) are shown below.

BMX = target: T2, BMX (Homo sapiens, UniProt P51813); test: Full kinase panel, single concentration: BMX; conditions: read-out: residual enzyme activity (%) BMX
T2 sequence (P51813 1-675): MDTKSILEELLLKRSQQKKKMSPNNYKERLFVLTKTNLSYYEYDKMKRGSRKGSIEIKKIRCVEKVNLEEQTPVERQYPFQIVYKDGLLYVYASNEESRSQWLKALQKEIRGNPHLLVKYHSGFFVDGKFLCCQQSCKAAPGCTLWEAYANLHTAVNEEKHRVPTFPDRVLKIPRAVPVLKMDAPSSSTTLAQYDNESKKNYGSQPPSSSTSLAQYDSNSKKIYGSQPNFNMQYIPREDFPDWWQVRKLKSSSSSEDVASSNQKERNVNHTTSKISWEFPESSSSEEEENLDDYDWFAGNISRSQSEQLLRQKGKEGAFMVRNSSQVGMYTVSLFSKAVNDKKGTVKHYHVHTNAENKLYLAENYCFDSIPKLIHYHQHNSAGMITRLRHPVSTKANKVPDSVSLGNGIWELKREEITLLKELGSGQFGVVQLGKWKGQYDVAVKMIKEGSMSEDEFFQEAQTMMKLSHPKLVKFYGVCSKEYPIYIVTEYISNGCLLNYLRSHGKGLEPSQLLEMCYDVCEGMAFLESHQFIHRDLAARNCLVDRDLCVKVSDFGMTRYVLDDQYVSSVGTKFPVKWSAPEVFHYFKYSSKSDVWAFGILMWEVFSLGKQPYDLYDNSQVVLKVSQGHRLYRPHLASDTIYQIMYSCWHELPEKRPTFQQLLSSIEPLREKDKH
Procedure: as §2, §3

DDR2 = target: T3, DDR2 (Homo sapiens, UniProt Q16832); test: Full kinase panel, single concentration: DDR2; conditions: read-out: residual enzyme activity (%) DDR2
T3 sequence (Q16832 22-855): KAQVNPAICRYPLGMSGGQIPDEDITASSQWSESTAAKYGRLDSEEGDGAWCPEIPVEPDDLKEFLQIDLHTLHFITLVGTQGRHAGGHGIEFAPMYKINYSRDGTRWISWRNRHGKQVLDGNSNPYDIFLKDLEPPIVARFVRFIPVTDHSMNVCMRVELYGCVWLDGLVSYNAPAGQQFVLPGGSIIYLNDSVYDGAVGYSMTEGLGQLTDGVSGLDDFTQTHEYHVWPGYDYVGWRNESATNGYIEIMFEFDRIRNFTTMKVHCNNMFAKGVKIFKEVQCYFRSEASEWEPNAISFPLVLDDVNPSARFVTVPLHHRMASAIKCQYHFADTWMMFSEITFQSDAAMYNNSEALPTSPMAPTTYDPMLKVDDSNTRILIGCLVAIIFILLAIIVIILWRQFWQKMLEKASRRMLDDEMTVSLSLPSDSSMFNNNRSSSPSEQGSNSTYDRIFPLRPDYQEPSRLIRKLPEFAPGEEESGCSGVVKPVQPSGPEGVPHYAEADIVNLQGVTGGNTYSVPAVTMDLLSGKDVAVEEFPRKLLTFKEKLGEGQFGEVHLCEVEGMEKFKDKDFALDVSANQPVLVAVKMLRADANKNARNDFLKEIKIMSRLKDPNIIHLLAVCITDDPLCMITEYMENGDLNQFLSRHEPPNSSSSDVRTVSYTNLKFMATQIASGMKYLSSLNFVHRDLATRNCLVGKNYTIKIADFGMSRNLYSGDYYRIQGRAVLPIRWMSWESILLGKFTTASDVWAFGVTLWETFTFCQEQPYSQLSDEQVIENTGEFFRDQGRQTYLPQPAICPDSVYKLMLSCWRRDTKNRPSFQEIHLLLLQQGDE
Procedure: as §2, §3

ABL1 (T315I) = ABL1 (T315I) (Homo sapiens, UniProt P00519, T315I); test: IC50 inhibitory activity against ABL1 (T315I) kinase
Procedure: as §1

c-Src [2] = target: T4, c-Src (Homo sapiens, UniProt P12931); test: Full kinase panel, single concentration: c-Src; conditions: read-out: residual enzyme activity (%) c-Src
T4 sequence (P12931 whole entry): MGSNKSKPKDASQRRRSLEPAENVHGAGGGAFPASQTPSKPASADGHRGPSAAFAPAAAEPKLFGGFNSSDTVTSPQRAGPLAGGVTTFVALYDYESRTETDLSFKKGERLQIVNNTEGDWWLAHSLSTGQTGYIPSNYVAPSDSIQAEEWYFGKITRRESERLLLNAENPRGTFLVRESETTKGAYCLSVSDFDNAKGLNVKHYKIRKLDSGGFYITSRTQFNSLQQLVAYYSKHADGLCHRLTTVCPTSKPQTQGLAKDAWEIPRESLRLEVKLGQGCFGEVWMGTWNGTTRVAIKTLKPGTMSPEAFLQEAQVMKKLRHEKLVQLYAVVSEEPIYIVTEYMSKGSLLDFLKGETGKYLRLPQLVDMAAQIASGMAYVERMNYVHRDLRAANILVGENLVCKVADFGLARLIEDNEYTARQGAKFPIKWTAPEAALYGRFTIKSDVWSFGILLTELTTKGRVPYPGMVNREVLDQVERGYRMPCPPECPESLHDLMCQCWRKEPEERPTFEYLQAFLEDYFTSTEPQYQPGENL
Procedure: as §2, §3

RAF1 = RAF1 (Homo sapiens, UniProt P04049); test: Full kinase panel, single concentration: RAF1; conditions: read-out: residual enzyme activity (%) RAF1
Chain of RAF1 (P04049 whole entry): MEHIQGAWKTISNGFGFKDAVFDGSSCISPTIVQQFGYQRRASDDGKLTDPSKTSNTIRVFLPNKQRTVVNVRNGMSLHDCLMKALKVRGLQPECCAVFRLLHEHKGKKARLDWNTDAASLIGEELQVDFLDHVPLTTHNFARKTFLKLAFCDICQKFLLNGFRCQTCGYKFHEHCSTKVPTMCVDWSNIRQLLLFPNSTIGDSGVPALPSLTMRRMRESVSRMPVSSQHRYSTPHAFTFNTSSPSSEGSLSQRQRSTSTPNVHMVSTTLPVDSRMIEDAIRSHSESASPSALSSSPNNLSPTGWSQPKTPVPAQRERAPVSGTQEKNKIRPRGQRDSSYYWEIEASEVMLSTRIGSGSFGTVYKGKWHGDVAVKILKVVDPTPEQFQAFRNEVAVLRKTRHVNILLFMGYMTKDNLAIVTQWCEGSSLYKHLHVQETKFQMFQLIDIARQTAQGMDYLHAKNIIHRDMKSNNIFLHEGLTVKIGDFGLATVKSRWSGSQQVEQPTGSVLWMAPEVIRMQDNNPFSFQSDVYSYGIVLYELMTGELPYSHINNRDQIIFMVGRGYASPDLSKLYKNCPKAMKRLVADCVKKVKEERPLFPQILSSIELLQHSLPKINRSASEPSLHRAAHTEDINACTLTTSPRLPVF
Procedure: as §2, §3

DDR1 [3] = target: T1, DDR1; test: Full kinase panel, single concentration: DDR1; conditions: read-out: residual enzyme activity (%) DDR1
Procedure: as §2, §3

LCK [4] = target: T5, LCK (Homo sapiens, UniProt P06239); test: IC50 inhibitory activity against LCK kinase
T5 sequence (P06239 whole entry): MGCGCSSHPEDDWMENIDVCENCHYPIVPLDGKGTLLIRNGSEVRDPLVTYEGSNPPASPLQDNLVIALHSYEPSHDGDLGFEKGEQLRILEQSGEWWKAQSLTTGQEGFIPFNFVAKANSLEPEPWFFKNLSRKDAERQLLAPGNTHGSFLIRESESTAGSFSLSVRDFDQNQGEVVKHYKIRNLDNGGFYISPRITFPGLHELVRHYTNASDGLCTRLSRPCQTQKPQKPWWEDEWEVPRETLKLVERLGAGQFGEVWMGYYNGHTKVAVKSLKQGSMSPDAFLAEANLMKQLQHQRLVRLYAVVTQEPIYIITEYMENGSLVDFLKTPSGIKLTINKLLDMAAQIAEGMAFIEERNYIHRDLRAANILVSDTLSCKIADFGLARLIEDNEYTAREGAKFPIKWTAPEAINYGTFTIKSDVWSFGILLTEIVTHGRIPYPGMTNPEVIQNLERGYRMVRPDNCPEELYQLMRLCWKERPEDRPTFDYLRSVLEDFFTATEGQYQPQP
Procedure: as §1

ABL2 = ABL2 (Homo sapiens, UniProt P42684); test: Full kinase panel, single concentration: ABL2; conditions: read-out: residual enzyme activity (%) ABL2
Procedure: as §2, §3

LYN [5] = target: T6, LYN (Homo sapiens, UniProt P07948); test: IC50 inhibitory activity against LYN kinase
T6 sequence (P07948 whole entry): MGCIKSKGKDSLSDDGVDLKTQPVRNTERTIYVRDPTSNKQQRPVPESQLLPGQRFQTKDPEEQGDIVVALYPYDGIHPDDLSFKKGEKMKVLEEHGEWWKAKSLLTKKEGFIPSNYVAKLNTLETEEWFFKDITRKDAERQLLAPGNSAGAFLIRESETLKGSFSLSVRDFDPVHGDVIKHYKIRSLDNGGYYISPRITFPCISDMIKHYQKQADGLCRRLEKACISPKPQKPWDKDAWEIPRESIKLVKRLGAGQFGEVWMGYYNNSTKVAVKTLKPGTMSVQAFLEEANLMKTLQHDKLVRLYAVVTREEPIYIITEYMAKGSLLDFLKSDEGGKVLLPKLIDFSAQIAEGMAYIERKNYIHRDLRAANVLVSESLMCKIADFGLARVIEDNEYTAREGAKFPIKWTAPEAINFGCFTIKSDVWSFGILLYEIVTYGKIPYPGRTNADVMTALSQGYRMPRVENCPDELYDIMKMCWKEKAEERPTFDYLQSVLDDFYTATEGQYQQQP

CSK = CSK (Homo sapiens, UniProt P41240); test: Full kinase panel, single concentration: CSK; conditions: read-out: residual enzyme activity (%) CSK
Procedure: as §2, §3

c-Src [6] = target: T4, c-Src; test: IC50 inhibitory activity against c-Src kinase
Procedure: as §1

p38a/MAPK14 = p38a/MAPK14 (Homo sapiens, UniProt Q16539); test: IC50 inhibitory activity against p38a/MAPK14 kinase
Chain of p38a/MAPK14 (Q16539 whole entry): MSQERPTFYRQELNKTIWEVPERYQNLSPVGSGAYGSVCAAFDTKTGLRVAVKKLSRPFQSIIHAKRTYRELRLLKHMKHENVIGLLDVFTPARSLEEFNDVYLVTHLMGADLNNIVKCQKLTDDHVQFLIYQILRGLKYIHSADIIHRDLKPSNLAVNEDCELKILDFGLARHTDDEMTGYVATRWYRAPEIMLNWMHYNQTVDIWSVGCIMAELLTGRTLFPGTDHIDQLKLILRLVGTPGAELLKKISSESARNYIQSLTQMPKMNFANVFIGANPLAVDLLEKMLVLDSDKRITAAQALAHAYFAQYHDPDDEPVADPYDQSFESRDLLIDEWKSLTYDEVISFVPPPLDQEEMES
Procedure: as §1

LCK [7] = target: T5, LCK; test: Full kinase panel, single concentration: LCK; conditions: read-out: residual enzyme activity (%) LCK
Procedure: as §2, §3

FGR [8] = target: T7, FGR (Homo sapiens, UniProt P09769); test: IC50 inhibitory activity against FGR kinase
T7 sequence (P09769 whole entry): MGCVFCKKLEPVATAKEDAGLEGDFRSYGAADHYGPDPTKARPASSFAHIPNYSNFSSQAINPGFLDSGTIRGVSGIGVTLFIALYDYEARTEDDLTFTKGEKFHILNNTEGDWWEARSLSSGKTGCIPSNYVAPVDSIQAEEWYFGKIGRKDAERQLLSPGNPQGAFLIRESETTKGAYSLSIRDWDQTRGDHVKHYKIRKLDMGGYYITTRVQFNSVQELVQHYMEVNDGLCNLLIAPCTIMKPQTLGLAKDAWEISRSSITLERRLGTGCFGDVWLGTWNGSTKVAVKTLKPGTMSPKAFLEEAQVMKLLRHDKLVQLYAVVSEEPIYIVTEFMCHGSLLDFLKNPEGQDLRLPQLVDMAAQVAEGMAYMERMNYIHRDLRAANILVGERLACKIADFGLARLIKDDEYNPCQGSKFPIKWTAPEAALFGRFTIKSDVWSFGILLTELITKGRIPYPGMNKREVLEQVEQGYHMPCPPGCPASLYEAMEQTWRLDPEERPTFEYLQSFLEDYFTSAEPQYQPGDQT
Procedure: as §1

FGR [9] = target: T7, FGR; test: Full kinase panel, single concentration: FGR; conditions: read-out: residual enzyme activity (%) FGR
Procedure: as §2, §3

HCK = HCK (Homo sapiens, UniProt P08631); test: Full kinase panel, single concentration: HCK; conditions: read-out: residual enzyme activity (%) HCK
Chain of HCK (P08631 whole entry): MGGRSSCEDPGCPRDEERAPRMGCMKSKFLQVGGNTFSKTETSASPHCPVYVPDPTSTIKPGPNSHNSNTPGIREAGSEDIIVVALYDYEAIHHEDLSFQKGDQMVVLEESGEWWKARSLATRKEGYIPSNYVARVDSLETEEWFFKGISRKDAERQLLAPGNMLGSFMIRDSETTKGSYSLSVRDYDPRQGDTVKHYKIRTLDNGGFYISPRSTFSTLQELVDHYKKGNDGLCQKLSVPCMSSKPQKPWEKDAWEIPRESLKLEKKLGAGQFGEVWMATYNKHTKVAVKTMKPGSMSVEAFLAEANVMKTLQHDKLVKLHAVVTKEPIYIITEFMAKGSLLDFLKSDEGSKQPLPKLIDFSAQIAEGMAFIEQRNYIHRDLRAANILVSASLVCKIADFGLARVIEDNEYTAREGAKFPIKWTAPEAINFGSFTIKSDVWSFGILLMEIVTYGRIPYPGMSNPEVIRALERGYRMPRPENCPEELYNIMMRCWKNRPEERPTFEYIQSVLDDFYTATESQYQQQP
Procedure: as §2, §3

LYN [10] = target: T6, LYN; test: Full kinase panel, single concentration: LYN; conditions: read-out: residual enzyme activity (%) LYN
Procedure: as §2, §3

Cc1ccc(Nc2ncc3c(n2)N(C)C(=O)N(c2cc(NC(=O)c4ccc5c(c4)N(Cc4ccccc4)C(=O)[C@H](CC(C)C)N=C5c4ccccc4)ccc2C)C3)cn1 [Example 33, (S)-1-benzyl-3-isobutyl-N-(4-methyl-3-(1-methyl-7-((6-methylpyridin-3-yl)amino)-2-oxo-1,4-dihydropyrimido[4,5-d]pyrimidin-3(2H)-yl)phenyl)-2-oxo-5-phenyl-2,3-dihydro-1H-benzo[e][1,4]diazepine-8-carboxamide]
IC50 (DDR1 [1]; read-out: DDR1 IC50): 1 to 200 nM | IC50 (ABL1; read-out: ABL1 IC50): 400 to 600 nM | remaining activity at 1 µM (BLK; single concentration of 1 μM): ≤ 30% | remaining activity at 1 µM (BMX; single concentration of 1 μM): ≤ 30% | remaining activity at 1 µM (DDR2; single concentration of 1 μM): ≤ 30% | IC50 (ABL1 (T315I); read-out: ABL1 (T315I) IC50): > 600 nM | remaining activity at 1 µM (c-Src [2]; single concentration of 1 μM): ≤ 30% | remaining activity at 1 µM (RAF1; single concentration of 1 μM): ≤ 30% | remaining activity at 1 µM (DDR1 [3]; single concentration of 1 μM): ≤ 30% | IC50 (LCK [4]; read-out: LCK IC50): 1 to 200 nM | remaining activity at 1 µM (ABL2; single concentration of 1 μM): ≤ 30% | IC50 (LYN [5]): 1 to 200 nM | remaining activity at 1 µM (CSK; single concentration of 1 μM): ≤ 30% | IC50 (c-Src [6]; read-out: c-Src IC50): 400 to 600 nM | IC50 (p38a/MAPK14; read-out: p38a/MAPK14 IC50): > 600 nM | remaining activity at 1 µM (LCK [7]; single concentration of 1 μM): ≤ 30% | IC50 (FGR [8]; read-out: FGR IC50): 1 to 200 nM | remaining activity at 1 µM (FGR [9]; single concentration of 1 μM): ≤ 30% | remaining activity at 1 µM (HCK; single concentration of 1 μM): ≤ 30% | remaining activity at 1 µM (LYN [10]; single concentration of 1 μM): ≤ 30%

Cc1ccc(Nc2ncc3c(n2)N(C)C(=O)N(c2cc(C(=O)N[C@H](C(=O)N4CCC[C@H]4C(=O)NC(C)(C)C(=O)N[C@@H](CC(C)C)C(=O)N(C)C)C(C)C)ccc2C)C3)cn1 [Example 1, (S)—N-(1-(((S)-1-(dimethylamino)-4-methyl-1-oxopentan-2-yl)amino)-2-methyl-1-oxopropan-2-yl)-1-((4-methyl-3-(1-methyl-7-((6-methylpyridin-3-yl)amino)-2-oxo-1,4-dihydropyrimido[4,5-d]pyrimidin-3(2H)-yl)benzoyl)-L-valyl)pyrrolidine-2-carboxamide] (X1-VP[Aib]L-NMe2)
IC50 (DDR1 [1]): 1 to 200 nM | IC50 (ABL1): 200 to 400 nM | remaining activity at 1 µM (BLK): ≤ 30% | remaining activity at 1 µM (BMX): ≤ 30% | remaining activity at 1 µM (DDR2): ≤ 30% | IC50 (ABL1 (T315I)): > 600 nM | remaining activity at 1 µM (c-Src [2]): ≤ 30% | remaining activity at 1 µM (RAF1): ≤ 30% | remaining activity at 1 µM (DDR1 [3]): ≤ 30% | IC50 (LCK [4]): 1 to 200 nM | remaining activity at 1 µM (ABL2): ≤ 30% | remaining activity at 1 µM (CSK): ≤ 30% | IC50 (c-Src [6]): > 600 nM | IC50 (p38a/MAPK14): > 600 nM | remaining activity at 1 µM (LCK [7]): ≤ 30% | IC50 (FGR [8]): 1 to 200 nM | remaining activity at 1 µM (FGR [9]): ≤ 30% | remaining activity at 1 µM (HCK): ≤ 30% | remaining activity at 1 µM (LYN [10]): ≤ 30%
